Reference: publication PMC11210122, “Synthesis, biological evaluation, and molecular docking of novel 1,3,4-substituted-thiadiazole derivatives as potential anticancer agent” (BMC Chemistry, 2024)
Read-outs that look alike come from different tables or passages of the source.

Tests used:
[1] = system: pseudo-normal human embryonic liver cell line (L02); test: MTT assay, pseudo-normal L02 cells; format: cell-based; details: L02, 100 µM, mean ± SD of three independent experiments
Protocol: (§1) Methods for in vitro anti-proliferative assay [Cell lines]: In the current investigation, hepatocellular carcinoma cell lines (HEPG-2), human lung carcinoma (A549) and human breast carcinoma cell line (MCF-7) and pseudo-normal human embryonic liver cellline (L02) were used for antiproliferative activity, the cell lines were obtained from NCL, Pune. The growth medium used is the DMEM (Dulbecco's modified Eagle's growth medium) having 10% FBS (fetal bovine serum), 10 µg/ml of insulin (Sigma) and 1% penicillin/streptomycin. The used reagents and chemicals were purchased from Sigma or Invitrogen. 100 µl of each compound was added to cells with density of 1.2 – 1.8 × 10,000 cells/well containing 100 µl growth medium in a 96-well plate for 24 h previous to performing the MTT assay.
(§2) MTT assay: MTT (3-[4,5-dimethylthiazole-2-yl]-2,5-diphenyltetrazolium bromide) was used to determine the anti-proliferative activity. Cells were incubated in a moist environment for 24 hours at 37℃. The cells were then treated with various concentrations of the studied substances (0.01, 0.1, 1.0, 10, 50, 100 µM). The media was removed, and the cells were treated for 2 hours with a 5% MTT ([…]) solution/well, allowing the dye to metabolize to colored-insoluble formazan crystals. The remaining solution was discarded and acidified isopropanol was then added for around 30 minutes to dissolve the formazan crystals, which were encased in aluminum foil at room temperature. The absorbance of each well was measured at 450 nm using an Elisa reader. The cell viability was expressed as a percentage of control, and the GI50 was calculated using Graph Pad Prism program (Graph Pad software Inc, CA).

[2] = system: hepatocellular carcinoma cell lines (HEPG-2); test: MTT anti-proliferative assay, HepG-2; format: cell-based, human; details: mean ± SD of three independent experiments, read-out: Growth inhibition, GI50
Protocol: as §1, §2

[3] = system: human breast carcinoma cell line (MCF-7); test: MTT anti-proliferative assay, MCF-7; format: cell-based; details: MCF7, MCF-7, MTT, mean ± SD of three independent experiments, read-out: Growth inhibition, GI50
Protocol: as §1, §2

[4] = system: human lung carcinoma cell line (A549); test: MTT anti-proliferative assay, A549; format: cell-based; details: mean ± SD of three independent experiments, read-out: Growth inhibition, GI50
Protocol: as §1, §2

[5] = system: breast carcinoma cell line (MCF-7); test: Annexin V-FITC/PI assay (flow cytometry); format: cell-based, human; details: 24 h
Protocol: The early stages of apoptosis were monitored by Annexin V-FITC (apoptotic cell marker) and PI (necrotic cell marker) double staining. The staining method was used according to the Annexin FITC/PI staining kit (Invitrogen™, Thermo Fisher Scientific Inc.). Annexin V- FITC/PI assay was performed to inspect the extent of programmed cell death (Fig. 3, apoptosis) by the compounds 4c, 4j and 8f on breast carcinoma cell line (MCF-7). The cells were treated with increasing concentrations (5–10 μM) for 24 h and analyzed by flow cytometry.
Annexin V-FITC/PI Assay: The early stages of apoptosis were monitored by Annexin V-FITC (apoptotic cell marker) and PI (necrotic cell marker) double staining. The staining method was used according to the Annexin FITC/PI staining kit (Invitrogen™, Thermo Fisher Scientific Inc.). Briefly, cells were washed in PBS twice and resuspended in 500 μl of PBS plus Annexin V-FITC and PI. For each sample at least 1×10^4 cells should be analysed using an FACS cytometer.

[6] = Homo sapiens, HepG2, HepG-2, MTT

| SMILES | GI50 [2, 6] | GI50 [3] | GI50 ([4]; Homo sapiens, A549, A549, MTT) | GI50 ([2]; HepG-2, MTT) | GI50 ([4]; A549, MTT) | inhibition at 100 µM [1] | Q3 live cells ([5]; MCF-7, 5 μM) | Q3 live cells ([5]; MCF-7, 10 μM) | Q2 late apoptotic cells ([5]; MCF-7, 5 μM) | Q2 late apoptotic cells ([5]; MCF-7, 10 μM) | Q1 necrotic cells ([5]; MCF-7, 5 μM) | Q1 necrotic cells ([5]; MCF-7, 10 μM) |
| --- | --- | --- | --- | --- | --- | --- | --- | --- | --- | --- | --- | --- |
| O=C(CCl)Nc1nc(-c2ccccc2)cs1 [4a] | 12.9 ± 0.25 µM | 23.8 ± 0.24 µM | 18.7 ± 0.41 µM |  |  | 21.6 ± 0.43% |  |  |  |  |  |  |
| O=C(CCl)Nc1nc(-c2ccc(Br)cc2)cs1 [4b] | 3.92 µM |  | 3.86 µM | 3.62 ± 0.14 µM | 2.97 ± 0.19 µM | 17.8 ± 0.51% |  |  |  |  |  |  |
| O=C(CCl)Nc1nc(-c2ccc(Cl)cc2)cs1 [4c] | 3.92 ± 0.17 µM | 2.63 ± 0.14 µM | 3.86 ± 0.22 µM |  |  | 18.4 ± 0.48% | 62.43% | 42.19% |  |  |  |  |
| COc1ccc(-c2csc(NC(=O)CCl)n2)cc1 [4d] | 8.37 ± 0.23 µM | 26.5 ± 0.32 µM | 15.4 ± 0.23 µM |  |  | 12.8 ± 0.22% |  |  |  |  |  |  |
| Cc1ccc(-c2csc(NC(=O)CCl)n2)cc1 [4e] | 7.28 ± 0.16 µM | 31.8 ± 0.46 µM | 13.7 ± 0.34 µM |  |  | 15.9 ± 0.24% |  |  |  |  |  |  |
| O=C(CCl)Nc1nc(-c2ccc([N+](=O)[O-])cc2)cs1 [4f] | 18.9 ± 0.29 µM | 29.4 ± 0.32 µM | 19.2 ± 0.32 µM |  |  | 28.16 ± 0.27% |  |  |  |  |  |  |
| O=C(CCl)Nc1nc(-c2ccc(F)cc2)cs1 [4g] | 22.7 ± 0.46 µM | 36.7 ± 0.41 µM | 17.5 ± 0.26 µM |  |  | 16.3 ± 0.21% |  |  |  |  |  |  |
| O=C(CCl)Nc1nc(-c2cccc([N+](=O)[O-])c2)cs1 [4h] | 25.81 ± 0.23 µM | 38.15 ± 0.27 µM | 28.6 ± 0.47 µM |  |  | 18.4 ± 0.34% |  |  |  |  |  |  |
| O=C(CCl)Nc1nc(-c2cccc(Br)c2)cs1 [4i] | 16 ± 0.43 µM | 33.74 ± 0.32 µM | 31.4 ± 0.36 µM |  |  | 17.6 ± 0.38% |  |  |  |  |  |  |
| COc1cccc(-c2csc(NC(=O)CCl)n2)c1 [4j] | 2.38 ± 0.24 µM | 1.82 ± 0.21 µM | 2.61 ± 0.12 µM |  |  | 17.3 ± 0.23% | 42.81% | 32.80% | 34.84% | 40.33% |  |  |
| O=C(CCl)Nc1nc(-c2cc3ccccc3oc2=O)cs1 [4k] | 14.3 ± 0.28 µM | 26.4 ± 0.28 µM | 25.3 ± 0.39 µM |  |  | 23 ± 0.35% |  |  |  |  |  |  |
| CCOC(=O)c1sc(NC(=O)CCl)nc1C [4l] | 29.8 ± 0.34 µM | 37.26 ± 0.37 µM | 32.9 ± 0.46 µM |  |  | 26 ± 0.47% |  |  |  |  |  |  |
| COc1cccc2c1C(=O)c1c(O)c3c(c(O)c1C2=O)C[C@@](O)(C(=O)CO)C[C@@H]3O[C@H]1C[C@H](N)[C@H](O)[C@H](C)O1 [doxorubicin, reference compound] | 3.87 ± 0.16 µM | 4.15 ± 0.18 µM | 3.26 ± 0.24 µM |  |  | 82.2 ± 1.26% |  |  |  |  |  |  |

Second part, led by results:

| GI50 [2, 6] | GI50 [3] | GI50 ([4]; Homo sapiens, A549, A549, MTT) | GI50 ([2]; HepG-2, MTT) | GI50 ([4]; A549, MTT) | SMILES | inhibition at 100 µM [1] | Q3 live cells ([5]; MCF-7, 5 μM) | Q3 live cells ([5]; MCF-7, 10 μM) | Q2 late apoptotic cells ([5]; MCF-7, 5 μM) | Q2 late apoptotic cells ([5]; MCF-7, 10 μM) | Q1 necrotic cells ([5]; MCF-7, 5 μM) | Q1 necrotic cells ([5]; MCF-7, 10 μM) |
| --- | --- | --- | --- | --- | --- | --- | --- | --- | --- | --- | --- | --- |
| 26.8 ± 0.28 µM | 34.87 ± 0.31 µM | 36.2 ± 0.39 µM |  |  | Nc1nnc(SCC(=O)Nc2nc(-c3ccccc3)cs2)s1 [8a, 2-(5-amino-1,3,4-thiadiazol-2-ylthio)-N-(4-phenylthiazol-2-yl) acetamide] | 22.6 ± 0.42% |  |  |  |  |  |  |
| 5.86 ± 0.24 µM | 4.07 ± 0.19 µM | 18.4 ± 0.46 µM |  |  | Nc1nnc(SCC(=O)Nc2nc(-c3ccc(Br)cc3)cs2)s1 [8b, 2-(5-amino-1,3,4-thiadiazol-2-ylthio)-N-(4-(4-bromophenyl)thiazol-2-yl) acetamide] | 15.8 ± 0.28% |  |  |  |  |  |  |
| 4.12 ± 0.18 µM | 20.7 ± 0.36 µM | 7.86 ± 0.24 µM |  |  | Nc1nnc(SCC(=O)Nc2nc(-c3ccc(Cl)cc3)cs2)s1 [8c, 2-(5-amino-1,3,4-thiadiazol-2-ylthio)-N-(4-(4-chlorophenyl)thiazol-2-yl) acetamide] | 18.2 ± 0.22% |  |  |  |  |  |  |
| 2.53 ± 0.1 µM | 2.98 ± 0.15 µM | 2.85 ± 0.18 µM |  |  | COc1ccc(-c2csc(NC(=O)CSc3nnc(N)s3)n2)cc1 [8d, 2-(5-amino-1,3,4-thiadiazol-2-ylthio)-N-(4-(4-methoxyphenyl)thiazol-2-yl) acetamide] | 21.8 ± 0.38% |  |  |  |  |  |  |
| 18.3 ± 0.34 µM | 28 ± 0.34 µM | 29.8 ± 0.37 µM |  |  | Cc1ccc(-c2csc(NC(=O)CSc3nnc(N)s3)n2)cc1 [8e, 2-(5-amino-1,3,4-thiadiazol-2-ylthio)-N-(4-p-tolylthiazol-2-yl) acetamide] | 23.8 ± 0.42% |  |  |  |  |  |  |
| 3.46 ± 0.13 µM | 3.71 ± 0.26 µM | 4.64 ± 0.23 µM |  |  | Nc1nnc(SCC(=O)Nc2nc(-c3ccc([N+](=O)[O-])cc3)cs2)s1 [8f, 2-(5-amino-1,3,4-thiadiazol-2-ylthio)-N-(4-(4-nitrophenyl)thiazol-2-yl) acetamide] | 20.6 ± 0.37% | 59.08% | 46.14% | 14.62% | 37.15% | 16.99% | 12.44% |
